In article PMC9545004, “Transglutaminase 2 affinity and enzyme‐substrate intermediate stability as determining factors for T‐cell responses to gluten peptides in celiac disease” (European Journal of Immunology, 2022):
Where two headings read alike, the source gives them in different places.

What was measured:
[1] = system: TCR-transfectant cells specific for DQ2.5-glia-α2 or DQ2.5-glia-ω2; assay: Inhibition by primary amines of gluten-specific T-cell stimulation via TG2-specific B cells, both epitopes; assay type: cell-based; conditions: native α-gliadin 33-mer and ω-gliadin 34-mer, IL-2 production, Table S2, read-out: IC50, inhibition of T-cell stimulation (range)
Description: (§1) Murine A20 B lymphoma cells engineered to express either the celiac patient‐derived TG2‐specific BCR 679‐14‐E06 or the non‐TG2‐specific BCR 693‐2‐F02 as human IgD are previously described. For B‐cell/T‐cell collaboration assays, we used A20 BCR transfectants also transduced to express HLA‐DQ2.5 [27]. Murine BW58α^–β^– cells were retrovirally transduced to express human CD4 as well as the celiac patient‐derived gluten‐specific TCR from a DQ2.5‐glia‐γ1‐reactive T‐cell clone (TCC 4.32) as previously described. The generation of TCR transfectants expressing DQ2.5‐glia‐α2‐reactive TCR (TCC 364.14) and DQ2.5‐glia‐ω2‐reactive TCR (clone 737.30) have been described previously.
The B‐cell/T‐cell collaboration assays were set up as previously described. […] The next day, IL‐2 concentration was measured in the culture supernatant by ELISA as previously described. The responsiveness of different TCR transfectants was assessed in the same way, but without the 30 min incubation with TG2, and using the synthetic deamidated peptides (D‐α‐gliadin 20‐mer, D‐ω‐gliadin 17‐mer, and D‐γ‐gliadin 21‐mer). […]

[2] = system: TG2:gluten complexes uptake by TG2-specific B cells (A20, BCR 679-14-E06); assay: Inhibition by primary amines of TG2:gluten complex uptake by TG2-specific B cells, flow cytometry; assay type: cell-based, Murine A20 B lymphoma; recombinant human TG2; conditions: for IC50: B-cell
Description: as §1
B‐cell uptake of gluten peptides was measured essentially as previously described. The following 9‐mer peptides were compared: FITC‐α2, FITC‐ω2, FITC‐γ1, and FITC‐γ3. In brief, A20 cells (300 000/well) expressing TG2‐specific (679‐14‐E06) or non‐TG2 specific BCR (693‐2‐F02) were incubated with recombinant TG2 (final 3 µg/mL), 5 µM FITC peptide, and 2 mM CaCl2 in RPMI at a final volume of 50 µL. Following incubation at 37°C, the TG2 enzymatic activity was quenched by the addition of 100 µL 2 mM EDTA/RPMI at specific timepoints. Cells were washed, fixed in 2% methanol‐free formaldehyde (Invitrogen), resuspended in 2% fetal calf serum (FCS)/PBS, and analyzed by flow cytometry (Attune NxT Flow Cytometer, Thermo Scientific). For each peptide, a delta MFI was calculated by subtracting MFI from non‐TG2 specific A20 cell (unspecific binding) from MFI of TG2‐specific A20 cells. Delta MFI was normalized for each experiment by dividing by the highest delta value per experiment. To assess the contribution and uptake of isopeptide‐linked TG2:gluten complexes, TG2 (3 µg/mL) and FITC‐labelled peptides (5 µM) were preincubated in RPMI with 2 mM CaCl2 at 37°C for 30 min before addition of A20 cells followed by 30 min incubation at 37°C. To examine the effect of TG2 secondary substrates on peptide uptake, the primary amines spermine (Sigma–Aldrich) and biotinylated cadaverine (5‐biotinamido‐pentylamine; 5‐BP, Pierce) were added to the reaction mixture (0.1–1000 µM final concentration), followed by 10 min incubation at 37°C and flow cytometry analysis. The dose‐response curve fitting to find IC50 was done using the “[Inhibitor] vs. response” equation in GraphPad Prism 8.3.0. Of note, the presence of Lysine HCl in RPMI medium represents an experimental constant in our assays that is not accounted for when calculating the competitive effect of amine.

[3] = 10 min, inhibition of FITC-α2 (5 µM) uptake, TG2 3 µg/mL, 2 mM CaCl2, RPMI, 37°C 10 min, Figure 4, read-out: IC50
[4] = 10 min, inhibition of FITC-α2 (5 µM) uptake, TG2 3 µg/mL, 2 mM CaCl2, RPMI, 37°C 10 min, mean, read-out: IC50
[5] = 10 min, inhibition of FITC-α2 (5 µM) uptake, TG2 3 µg/mL, 2 mM CaCl2, RPMI, 37°C 10 min, replicate Figure S4 A, read-out: IC50
[6] = 10 min, inhibition of FITC-α2 (5 µM) uptake, TG2 3 µg/mL, 2 mM CaCl2, RPMI, 37°C 10 min, replicate Figure S4 B, read-out: IC50
[7] = 10 min, inhibition of FITC-ω2 (5 µM) uptake, TG2 3 µg/mL, 2 mM CaCl2, RPMI, 37°C 10 min, Figure 4, read-out: IC50
[8] = 10 min, inhibition of FITC-ω2 (5 µM) uptake, TG2 3 µg/mL, 2 mM CaCl2, RPMI, 37°C 10 min, mean (spermine: Figure S4 B not included), read-out: IC50
[9] = 10 min, inhibition of FITC-ω2 (5 µM) uptake, TG2 3 µg/mL, 2 mM CaCl2, RPMI, 37°C 10 min, replicate Figure S4 A, read-out: IC50
[10] = FITC 9-mer native gluten peptides, average IC50 values, Table S1, read-out: IC50, inhibition of FITC-9-mer peptide uptake (average values)
[11] = inhibition of FITC-α2 uptake, Figure 4
[12] = inhibition of FITC-α2 uptake, mean
[13] = inhibition of FITC-α2 uptake, replicate Figure S4 B
[14] = inhibition of FITC-ω2 uptake, Figure 4
[15] = inhibition of FITC-ω2 uptake, mean
[16] = inhibition of FITC-ω2 uptake, replicate Figure S4 A
[17] = inhibition of FITC-ω2 uptake, replicate Figure S4 B
[18] = logIC50, inhibition of FITC-α2 uptake, Figure 4
[19] = logIC50, inhibition of FITC-α2 uptake, mean
[20] = logIC50, inhibition of FITC-α2 uptake, replicate Figure S4 A
[21] = logIC50, inhibition of FITC-α2 uptake, replicate Figure S4 B
[22] = logIC50, inhibition of FITC-γ1 uptake, Figure 4
[23] = logIC50, inhibition of FITC-γ1 uptake, mean
[24] = logIC50, inhibition of FITC-γ1 uptake, replicate Figure S4 C
[25] = logIC50, inhibition of FITC-ω2 uptake, Figure 4
[26] = logIC50, inhibition of FITC-ω2 uptake, mean
[27] = logIC50, inhibition of FITC-ω2 uptake, replicate Figure S4 A
[28] = logIC50, inhibition of FITC-ω2 uptake, replicate Figure S4 B

NCCCNCCCCNCCCN [spermine]
IC50 [1]: 27 to 58 µM | IC50 [2, 3]: 29.3 µM | IC50 [2, 4]: 66.1 µM | IC50 [2, 5]: 47.6 µM | IC50 [2, 6]: 121 µM | IC50 ([2]; 10 min, inhibition of FITC-γ1 (5 µM) uptake, TG2 3 µg/mL, 2 mM CaCl2, RPMI, 37°C 10 min, Figure 4, read-out: IC50): 45.3 µM | IC50 ([2]; 10 min, inhibition of FITC-γ1 (5 µM) uptake, TG2 3 µg/mL, 2 mM CaCl2, RPMI, 37°C 10 min, mean, read-out: IC50): 31.9 µM | IC50 ([2]; 10 min, inhibition of FITC-γ1 (5 µM) uptake, TG2 3 µg/mL, 2 mM CaCl2, RPMI, 37°C 10 min, replicate Figure S4 C, read-out: IC50): 18.7 µM | IC50 [2, 7]: 14 µM | IC50 [2, 8]: 26.1 µM | IC50 [2, 9]: 38.2 µM | IC50 [2, 10]: 26 to 72 µM | inhibition of FITC-9-mer uptake, in words ([2]; TG2 3 µg/mL, FITC peptide 5 µM, 2 mM CaCl2, 37°C 10 min, Figure 4, Figure S4): effectively inhibited uptake | logIC50 [2, 11]: 1.47 | logIC50 [2, 12]: 1.74 | logIC50 ([2]; inhibition of FITC-α2 uptake, replicate Figure S4 A): 1.68 | logIC50 [2, 13]: 2.08 | logIC50 ([2]; inhibition of FITC-γ1 uptake, Figure 4): 1.66 | logIC50 ([2]; inhibition of FITC-γ1 uptake, mean): 1.46 | logIC50 ([2]; inhibition of FITC-γ1 uptake, replicate Figure S4 C): 1.27 | logIC50 [2, 14]: 1.15 | logIC50 [2, 15]: 1.36 | logIC50 [2, 16]: 1.58 | logIC50 [2, 17]: 16.4 | log 95% CI lower limit [2, 18]: 0.911 | log 95% CI upper limit [2, 18]: 2.19 | log 95% CI lower limit [2, 19]: 1.31 | log 95% CI upper limit [2, 19]: 2.23 | log 95% CI lower limit [2, 20]: 1.49 | log 95% CI upper limit [2, 20]: 1.864 | log 95% CI lower limit [2, 21]: 1.53 | log 95% CI upper limit [2, 21]: 2.63 | log 95% CI lower limit [2, 22]: 1.20 | log 95% CI upper limit [2, 22]: 2.08 | log 95% CI lower limit [2, 23]: 1.02 | log 95% CI upper limit [2, 23]: 2.0 | log 95% CI lower limit [2, 24]: 0.84 | log 95% CI upper limit [2, 24]: 1.92 | log 95% CI lower limit [2, 25]: 0.93 | log 95% CI upper limit [2, 25]: 1.39 | log 95% CI lower limit [2, 26]: 1.16 | log 95% CI upper limit [2, 26]: 1.59 | log 95% CI lower limit [2, 27]: 1.38 | log 95% CI upper limit [2, 27]: 1.79

NCCCCCNC(=O)CCCC[C@@H]1SC[C@@H]2NC(=O)N[C@@H]21 [5-BP, 5‐biotinamido‐pentylamine]
IC50 [1]: 27 to 58 µM | IC50 [2, 3]: 22.7 µM | IC50 [2, 4]: 42 µM | IC50 [2, 5]: 57.9 µM | IC50 [2, 6]: 45.4 µM | IC50 [2, 7]: 20.7 µM | IC50 [2, 8]: 72 µM | IC50 [2, 9]: 130 µM | IC50 ([2]; 10 min, inhibition of FITC-ω2 (5 µM) uptake, TG2 3 µg/mL, 2 mM CaCl2, RPMI, 37°C 10 min, replicate Figure S4 B (for spermine not included in the mean), read-out: IC50): 65.6 µM | IC50 [2, 10]: 26 to 72 µM | logIC50 [2, 11]: 1.36 | logIC50 [2, 12]: 1.59 | logIC50 [2, 13]: 1.66 | logIC50 [2, 14]: 1.32 | logIC50 [2, 15]: 1.75 | logIC50 [2, 16]: 2.11 | logIC50 [2, 17]: 1.82 | log 95% CI lower limit [2, 18]: 1.04 | log 95% CI upper limit [2, 18]: 1.71 | log 95% CI lower limit [2, 19]: 1.35 | log 95% CI upper limit [2, 19]: 1.85 | log 95% CI lower limit [2, 20]: 1.52 | log 95% CI upper limit [2, 20]: 2.00 | log 95% CI lower limit [2, 21]: 1.50 | log 95% CI upper limit [2, 21]: 1.82 | log 95% CI lower limit [2, 25]: 1.09 | log 95% CI upper limit [2, 25]: 1.57 | log 95% CI lower limit [2, 26]: 1.48 | log 95% CI upper limit [2, 26]: 2.03 | log 95% CI lower limit [2, 27]: 1.86 | log 95% CI upper limit [2, 27]: 2.38 | log 95% CI lower limit [2, 28]: 1.50 | log 95% CI upper limit [2, 28]: 2.14
